{
  "source": "patent US20050222085A1",
  "about": "“Quaternised ammonium cyclodextrin compounds” (priority 2002, published 2005)",
  "assay_in_all_cases": "Preservative effectiveness test",
  "assay_type_in_all_cases": "cell-based",
  "key": {"[1]": {"tested_on": "Staphyloccocus aureus ATCC 6538", "settings": "same solution", "description": "(§1) 0.2 g of QA-beta-CD (QA-beta-CD=3-(trimethylammonio)-2-hydroxypropyl-beta-cyclodextrin chloride, empiric formula: (C6H10-nO5)7(C6H15ONCl)n n=2-5. are added to 170 ml water (nanopure). Then 10.10 g of Sorbitol and 0.2 g of Disodium edetate are added and the pH is adjusted to a value of 7.0-7.4 and water added to make up 200 ml of resulting solution. The solution is filtered through a Corning bottle top filter unit 0.22 μm CA under sterile conditions. The solution has a pH of 7.35 and an osmolality of 307 mOsm/kg (270-330).\n(§2) Samples of the solution are inoculated with Escherichia coli ATCC 8739; Pseudomonas aeruginosa ATCC 9027, Staphyloccocus aureus ATCC 6538; Candida albicans ATCC 10231 and Aspergillus niger ATCC 16404, respectively and assayed for presence/growth at the times given in Table 2."}, "[2]": {"tested_on": "Escherichia coli ATCC 8739", "settings": "same solution", "description": "as §1, §2"}, "[3]": {"tested_on": "Aspergillus niger ATCC 16404", "settings": "Time 28 d; same solution", "description": "as §1, §2"}, "[4]": {"tested_on": "Pseudomonas aeruginosa ATCC 9027", "settings": "same solution", "description": "as §1, §2"}, "[5]": {"tested_on": "Candida albicans ATCC 10231", "settings": "same solution", "description": "as §1, §2"}},
  "data": [
    {"substance": "3-(trimethylammonio)-2-hydroxypropyl-beta-cyclodextrin chloride [QA-beta-CD]", "values": [
      {"measurement": "presence/growth of Staphyloccocus aureus ATCC 6538", "setting": "[1]; Time 24 h", "value": "<10^2"},
      {"measurement": "presence/growth of Staphyloccocus aureus ATCC 6538", "setting": "[1]; Time 7 d", "value": "<10^2"},
      {"measurement": "presence/growth of Staphyloccocus aureus ATCC 6538", "setting": "[1]; Time 28 d", "value": "<10^2"},
      {"measurement": "presence/growth of Escherichia coli ATCC 8739", "setting": "[2]; Time 6 h", "value": "<10^2"},
      {"measurement": "presence/growth of Escherichia coli ATCC 8739", "setting": "[2]; Time 24 h", "value": "<10^2"},
      {"measurement": "presence/growth of Escherichia coli ATCC 8739", "setting": "[2]; Time 7 d", "value": "<10^2"},
      {"measurement": "presence/growth of Escherichia coli ATCC 8739", "setting": "[2]; Time 28 d", "value": "<10^2"},
      {"measurement": "presence/growth of Aspergillus niger ATCC 16404", "setting": "[3]", "value": "2. 10^2"},
      {"measurement": "presence/growth of Pseudomonas aeruginosa ATCC 9027", "setting": "[4]; Time 6 h", "value": "<10^2"},
      {"measurement": "presence/growth of Pseudomonas aeruginosa ATCC 9027", "setting": "[4]; Time 24 h", "value": "<10^2"},
      {"measurement": "presence/growth of Pseudomonas aeruginosa ATCC 9027", "setting": "[4]; Time 7 d", "value": "<10^2"},
      {"measurement": "presence/growth of Pseudomonas aeruginosa ATCC 9027", "setting": "[4]; Time 28 d", "value": "<10^2"},
      {"measurement": "presence/growth of Candida albicans ATCC 10231", "setting": "[5]; Time 7 d", "value": "<10^2"},
      {"measurement": "presence/growth of Candida albicans ATCC 10231", "setting": "[5]; Time 14 d", "value": "<10^2"},
      {"measurement": "presence/growth of Candida albicans ATCC 10231", "setting": "[5]; Time 28 d", "value": "<10^2"}
    ]}
  ]
}
